Measurements from the supplement of paper PMC10307832.

What was measured:
Experiment in all cases: relative viability (nuclei count vs DMSO), 5 days (fraction); higher = more cells survive
NCI-H1975 = test system: NCI-H1975
In short: (§1)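 Medians of duplicate plates are given as relative viability. That measure is the nuclei count in treated wells divided by the count in vehicle wells. Counts were taken on 4× images of lung cancer cell lines in 1536-well plates, 5 days after pin-tool dosing the day after seeding with one drug alone or a fixed anchor-drug dose plus five library-drug doses (not always all listed) in √10 steps.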

COR-L 105 = test system: COR-L 105
In short: as §1

201T = test system: 201T
In short: as §1

LU99A = test system: LU99A
In short: as §1

NCI-H2085 = test system: NCI-H2085
In short: as §1

NCI-H2126 = test system: NCI-H2126
In short: as §1

PC-3 [JPC-3] = test system: PC-3 [JPC-3]
In short: as §1

HCC-827 = test system: HCC-827
In short: as §1

SW 1573 = test system: SW 1573
In short: as §1

NCI-H1437 = test system: NCI-H1437
In short: as §1

NCI-H647 = test system: NCI-H647
In short: as §1

LCLC-97TM1 = test system: LCLC-97TM1
In short: as §1

Question: Which results are given for `COc1cc(N2CCC(C(N)=O)CC2)ccc1Nc1nc(N)c(Cl)c(Nc2ccccc2S(=O)(=O)C(C)C)n1` [HG-5-88-01] + N=C(N)NC(=N)NCCc1ccccc1 [Phenformin] (partner 250 µM)?
Answer: relative viability (NCI-H1975; first compound 0.04 µM): 0.437; relative viability (NCI-H1975; first compound 0.1265 µM): 0.416; relative viability (NCI-H1975; first compound 0.4 µM): 0.354; relative viability (NCI-H1975; first compound 1.265 µM): 0.365; relative viability (NCI-H1975; first compound 4 µM): 0.188; relative viability (COR-L 105; first compound 0.04 µM): 0.61; relative viability (COR-L 105; first compound 0.1265 µM): 0.511; relative viability (COR-L 105; first compound 0.4 µM): 0.47; relative viability (COR-L 105; first compound 1.265 µM): 0.324; relative viability (COR-L 105; first compound 4 µM): 0.296; relative viability (201T; first compound 0.04 µM): 0.54; relative viability (201T; first compound 0.1265 µM): 0.452; relative viability (201T; first compound 0.4 µM): 0.479; relative viability (201T; first compound 1.265 µM): 0.547; relative viability (201T; first compound 4 µM): 0.397; relative viability (LU99A; first compound 0.04 µM): 0.801; relative viability (LU99A; first compound 0.1265 µM): 0.78; relative viability (LU99A; first compound 0.4 µM): 0.823; relative viability (LU99A; first compound 1.265 µM): 0.921; relative viability (LU99A; first compound 4 µM): 0.593; relative viability (NCI-H2085; first compound 0.04 µM): 0.656; relative viability (NCI-H2085; first compound 0.1265 µM): 0.799; relative viability (NCI-H2085; first compound 0.4 µM): 0.685; relative viability (NCI-H2085; first compound 1.265 µM): 0.622; relative viability (NCI-H2085; first compound 4 µM): 0.395; relative viability (NCI-H2126; first compound 0.04 µM): 0.552; relative viability (NCI-H2126; first compound 0.1265 µM): 0.58; relative viability (NCI-H2126; first compound 0.4 µM): 0.525; relative viability (NCI-H2126; first compound 1.265 µM): 0.461; relative viability (NCI-H2126; first compound 4 µM): 0.384; relative viability (PC-3 [JPC-3]; first compound 0.04 µM): 0.48; relative viability (PC-3 [JPC-3]; first compound 0.1265 µM): 0.457; relative viability (PC-3 [JPC-3]; first compound 0.4 µM): 0.488; relative viability (PC-3 [JPC-3]; first compound 1.265 µM): 0.461; relative viability (PC-3 [JPC-3]; first compound 4 µM): 0.39; relative viability (HCC-827; first compound 0.04 µM): 0.432; relative viability (HCC-827; first compound 0.1265 µM): 0.413; relative viability (HCC-827; first compound 0.4 µM): 0.384; relative viability (HCC-827; first compound 1.265 µM): 0.29; relative viability (HCC-827; first compound 4 µM): 0.249; relative viability (SW 1573; first compound 0.04 µM): 0.335; relative viability (SW 1573; first compound 0.1265 µM): 0.368; relative viability (SW 1573; first compound 0.4 µM): 0.324; relative viability (SW 1573; first compound 1.265 µM): 0.229; relative viability (SW 1573; first compound 4 µM): 0.344; relative viability (NCI-H1437; first compound 0.04 µM): 0.37; relative viability (NCI-H1437; first compound 0.1265 µM): 0.335; relative viability (NCI-H1437; first compound 0.4 µM): 0.466; relative viability (NCI-H1437; first compound 1.265 µM): 0.37; relative viability (NCI-H1437; first compound 4 µM): 0.194; relative viability (NCI-H647; first compound 0.04 µM): 0.663; relative viability (NCI-H647; first compound 0.1265 µM): 0.595; relative viability (NCI-H647; first compound 0.4 µM): 0.624; relative viability (NCI-H647; first compound 1.265 µM): 0.608; relative viability (NCI-H647; first compound 4 µM): 0.643; relative viability (LCLC-97TM1; first compound 0.04 µM): 0.483; relative viability (LCLC-97TM1; first compound 0.1265 µM): 0.42; relative viability (LCLC-97TM1; first compound 0.4 µM): 0.394; relative viability (LCLC-97TM1; first compound 1.265 µM): 0.357
